Data taken from US20260265329A1, “POLYPEPTIDE AND DERIVATIVE THEREOF, COMPOSITION, AND USE THEREOF” (HANGZHOU SCIWIND BIOSCIENCES CO., LTD., priority 2023, published 2026).
Starred links: 1 amine or outer side, 2 acyl side, 3 side chain; linkers in the order of their positions; H or OH if unused. Residues, ends and D or L forms follow the SMILES beside them. No end group written: not given here. *: point of attachment. C20 diacid = O=C(O)CCCCCCCCCCCCCCCCCCC(=O)*; γGlu = O=C(O)[C@H](CCC(=O)[*:2])N[*:1]

How the values were obtained:
[1] = Heat accelerated stability assay, 40° C., detection on 7 d and 28 d; type: physicochemical
In short: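 Derivatives at 1 mg/mL in water with sodium dihydrogen phosphate (1.42 mg/mL), pH about 7.4, sterile-filtered, stored sealed at 40° C. On days 7 and 28, appearance noted; after centrifugation, supernatant concentration and purity measured by reversed-phase HPLC at 214 nm (water/0.05% TFA–acetonitrile gradient).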

[2] = target: T1, human amylin receptors (Homo sapiens, UniProt O60896+P30988); test: Luciferase assay in stably transfected amylin receptor/CRE-luc CHO cell line; type: cell-based
T1 construct: host or cells: CHO-K1/Ga15/AMY3 cells, further stably transfected with a CRE-luciferase plasmid
T1 sequence (P30988 25-474): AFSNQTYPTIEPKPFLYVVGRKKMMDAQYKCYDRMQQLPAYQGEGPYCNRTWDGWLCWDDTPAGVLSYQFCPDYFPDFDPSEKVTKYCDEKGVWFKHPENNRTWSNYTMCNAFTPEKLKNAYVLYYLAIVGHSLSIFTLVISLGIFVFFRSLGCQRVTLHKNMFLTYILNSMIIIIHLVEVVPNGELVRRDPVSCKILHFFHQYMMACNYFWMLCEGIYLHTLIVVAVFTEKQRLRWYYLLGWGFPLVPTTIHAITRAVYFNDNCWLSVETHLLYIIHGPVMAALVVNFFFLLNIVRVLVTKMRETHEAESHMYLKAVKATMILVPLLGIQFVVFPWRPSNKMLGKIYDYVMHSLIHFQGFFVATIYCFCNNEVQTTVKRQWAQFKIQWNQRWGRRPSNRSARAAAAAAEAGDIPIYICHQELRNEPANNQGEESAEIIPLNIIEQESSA
T1 sequence (O60896 24-148 partner): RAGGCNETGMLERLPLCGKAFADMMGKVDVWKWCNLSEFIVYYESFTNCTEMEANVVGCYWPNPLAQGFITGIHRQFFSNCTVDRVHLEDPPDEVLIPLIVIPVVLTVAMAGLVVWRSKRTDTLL

[3] = Animal study in SD rats (Example 4), weight change and food consumption; type: in vivo; details: 30 nmol/kg subcutaneous (FIGS. 2A, 2B)
Procedure: SPF male SD rats (7-8 weeks, 200-250 g) were employed in this study after health inspection and quarantine. The experimental animals were exposed to a room temperature of 20° C.-23° C. and a relative humidity of 40%-50%, and were provided with Co60 mouse reproduction feed 1035 and purified water supplied with water feeding bottles for free intake throughout the health inspection and quarantine and the study. Based on their mean body weight, 5 rats were assigned to each testing group for the derivatives. The rats were subcutaneously administered the derivatives at a dose of 30 nmol/kg or a vehicle (PBS pH7.4), and the dosing timepoint was recorded for each group. After dosing, the rats were put back into cages where they lived and could have access to food and water. Food consumption and weight change of the rats were recorded online or manually every 24 hours.

[4] = cited from earlier work
[5] = in vivo, background statement; cited from earlier work

Row | Compound | Purity from the reversed phase chromatography-214 nm, 0 d ([1]; 1 mg/mL, pH about 7.4, 40° C., 0 d) | Purity from the reversed phase chromatography-214 nm, 7 d ([1]; 1 mg/mL, pH about 7.4, 40° C., 7 d) | Purity from the reversed phase chromatography-214 nm, 28 d ([1]; 1 mg/mL, pH about 7.4, 40° C., 28 d) | Change of spectra of reversed phase chromatography after heat acceleration ([1]; after 7 days or even 1 month, 40° C. (FIG. 1)) | Change (7 d − 0 d) ([1]; purity on 7 d − purity on 0 d, 40° C., pH about 7.4) | Change (28 d − 0 d) ([1]; purity on 28 d − purity on 0 d, 40° C., pH about 7.4) | Relative activity ([2]; EC50 ratio of Cagrilintide to the compound, Cagrilintide 100%) [%] | EC50 ([2]; amylin receptor/CRE-luc CHO cells, 24 hours incubation, luminescence) [nM] | Activity on weight loss and food intake compared with Cagrilintide [3] | fibrillation ([4]; background statement) | chemical stability ([4]; pH 7, background statement) | half-life [5]
1 | CC[C@H](C)[C@H](NC(=O)[C@H](CC(=O)O)NC(=O)[C@H](CCCNC(=N)N)NC(=O)[C@H](CC(=O)O)NC(=O)[C@H](CCCNC(=N)N)NC(=O)[C@H](CC(=O)O)NC(=O)[C@@H](NC(=O)[C@H](Cc1ccccc1)NC(=O)[C@H](Cc1c[nH]cn1)NC(=O)[C@H](CCCNC(=N)N)NC(=O)[C@H](CC(C)C)NC(=O)[C@H](Cc1ccccc1)NC(=O)[C@H](CC(=O)O)NC(=O)[C@H](C)NC(=O)[C@H](CC(C)C)NC(=O)[C@H](CCCNC(=N)N)NC(=O)[C@H](CCC(N)=O)NC(=O)[C@@H](NC(=O)[C@H](C)NC(=O)[C@H](C)NC(=O)[C@@H](NC(=O)[C@H](CO)NC(=O)[C@H](CC(C)C)NC(=O)[C@H](CCC(N)=O)NC(=O)[C@H](CO)NC(=O)[C@H](C)NC(=O)CC[C@H](NC(=O)CCCCCCCCCCCCCCCCCCC(=O)O)C(=O)O)[C@@H](C)O)[C@@H](C)O)[C@@H](C)O)C(=O)N[C@@H](CC(C)C)C(=O)N1CCC[C@H]1C(=O)N1CCC[C@H]1C(=O)N[C@H](C(=O)N[C@@H](CC(N)=O)C(=O)N[C@H](C(=O)NCC(=O)N[C@@H](CO)C(=O)N[C@@H](CC(N)=O)C(=O)N[C@H](C(=O)N1CCC[C@H]1C(N)=O)[C@@H](C)O)C(C)C)[C@@H](C)O [M6] ({C20 diacid-γGlu}-ASQLSTAATQRLADFLRHFTDRDRDILPPTNVGSNTP-NH2) | 91.52 | 90.98 | 92.33 | almost no change | −0.54 | 0.81 | 62 | 0.042 | the most active one with an activity notably higher than Cagrilintide |  |  | 
2 | Amylin (KCNTATCATQRLANFLVHSSNNFGAILSSTNVGSNTY; not fully specified (C-terminus, bridges); cysteine pairing not given here; UniProt P10997 34-70, looked up) [polypeptide hormone consisting of 37 amino acids, member of the calcitonin protein family] |  |  |  |  |  |  |  |  |  | strong tendency towards fibrillation | chemical instability at pH 7 | short half-life in vivo
